Reference: ChEMBL document CHEMBL1201862, “PubChem BioAssay data set” (2004)
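In this assay, cells in 96-well plates receive the compound at five concentrations for 48 hours. Endpoints are linearly interpolated between the surrounding concentrations. GI50 is the concentration that inhibits growth by half.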 Active and inactive are the calls of the source. Cut-off read from the data, not from the text of the source: active = GI50 up to about 1.1 µM and inactive = higher.

What was measured:
Experiment in all cases: NCI-60 cell line screen, 48 h
SN12C = test system: SN12C
UACC-62 = test system: UACC-62
SNB-19 = test system: SNB-19
K562 = test system: K562
LXFL 529 = test system: LXFL 529
RPMI-8226 = test system: RPMI-8226
CAKI-1 = test system: CAKI-1
RXF 393 = test system: RXF 393
A549 = test system: A549
SF-268 = test system: SF-268
UACC-257 = test system: UACC-257
KM12 = test system: KM12
MOLT-4 = test system: MOLT-4
SK-MEL-5 = test system: SK-MEL-5
786-0 = test system: 786-0
Hs-578T = test system: Hs-578T
MDA-MB-435 = test system: MDA-MB-435
MDA-N = test system: MDA-N
PC-3 = test system: PC-3
NCI/ADR-RES = test system: NCI/ADR-RES

| SMILES | GI50 (SN12C) | GI50 (UACC-62) | GI50 (SNB-19) | GI50 (K562) | GI50 (LXFL 529) | GI50 (RPMI-8226) | GI50 (CAKI-1) | GI50 (RXF 393) | GI50 (A549) | GI50 (SF-268) | GI50 (UACC-257) | GI50 (KM12) | GI50 (MOLT-4) | GI50 (SK-MEL-5) | GI50 (786-0) | GI50 (Hs-578T) | GI50 (MDA-MB-435) | GI50 (MDA-N) | GI50 (PC-3) | GI50 (NCI/ADR-RES) |
| --- | --- | --- | --- | --- | --- | --- | --- | --- | --- | --- | --- | --- | --- | --- | --- | --- | --- | --- | --- | --- |
| N#CN1CCC=C(c2cc3ccccc3[nH]2)C1 | 356 µM (inactive) | 201 µM (inactive) | > 448 µM (inactive) | 421 µM (inactive) | 236 µM (inactive) | 170 µM (inactive) | 245 µM (inactive) | 256 µM (inactive) | 394 µM (inactive) | 210 µM (inactive) | 199 µM (inactive) | 161 µM (inactive) | 230 µM (inactive) | 148 µM (inactive) | > 448 µM (inactive) |  |  |  |  |  |
| CCOC(=O)C1=C(Nc2ccc(NC3=C(C(=O)OCC)C(=O)CS3)cc2)SCC1=O | 19.5 µM (inactive) | 16.9 µM (inactive) | 32.2 µM (inactive) | 30.5 µM (inactive) | 22.1 µM (inactive) | 18.5 µM (inactive) | 14.8 µM (inactive) | 16 µM (inactive) | 30.3 µM (inactive) | 22 µM (inactive) | 22.7 µM (inactive) | 21.5 µM (inactive) |  | 19.1 µM (inactive) | 14.6 µM (inactive) |  |  |  |  |  |
| Cc1cc(C2CCCCC2)n(O)c(=O)c1 [CICLOPIROX OLAMINE] | 12.5 µM (inactive) | 3.03 µM (inactive) | 11.6 µM (inactive) | 3.41 µM (inactive) | 4.2 µM (inactive) | 3.56 µM (inactive) |  | 16.5 µM (inactive) | 3.91 µM (inactive) | 4.25 µM (inactive) | 1.62 µM (inactive) | 4.66 µM (inactive) | 1.93 µM (inactive) | 10.4 µM (inactive) | 9.48 µM (inactive) |  |  |  |  |  |
| O=C1/C(=C/c2cccc([N+](=O)[O-])c2)COc2ccccc21 |  | 1.67 µM (inactive) | 2.82 µM (inactive) | 1.46 µM (inactive) | 2.43 µM (inactive) | 1.01 µM (active) | 5.33 µM (inactive) | 4.65 µM (inactive) | 41.2 µM (inactive) | 8.99 µM (inactive) | 7.69 µM (inactive) | 2.5 µM (inactive) | 2.31 µM (inactive) | 2.32 µM (inactive) | 1.63 µM (inactive) |  |  |  |  |  |
| CC(=O)NC(CCCN(Cc1ccccc1)C(=O)N(CCCl)N=O)C(=O)NCc1ccccc1 (centres undefined) | 46.3 µM (inactive) | 2.24 µM (inactive) | 17.8 µM (inactive) | 68.4 µM (inactive) | > 100 µM (inactive) | > 70 µM (inactive) | 7.5 µM (inactive) | 21.8 µM (inactive) | 16.1 µM (inactive) | 3.89 µM (inactive) | 50 µM (inactive) | 60.5 µM (inactive) | 9.4 µM (inactive) | 27.5 µM (inactive) | 2.24 µM (inactive) |  |  |  |  |  |
| COCOCC/C=C/C=O | > 100 µM (inactive) | > 100 µM (inactive) | > 100 µM (inactive) | > 100 µM (inactive) | > 100 µM (inactive) | > 100 µM (inactive) |  | > 100 µM (inactive) | > 100 µM (inactive) | > 100 µM (inactive) | > 100 µM (inactive) | > 100 µM (inactive) | > 100 µM (inactive) | > 100 µM (inactive) | > 100 µM (inactive) |  |  |  |  |  |
| CC(=O)[C@]1(O)Cc2c(O)c3c(c(O)c2[C@@H](OC2CC(N)C(O)C(C)O2)C1)C(=O)c1c(OCc2ccccc2)cccc1C3=O (some centres undefined) | 1.37 µM (inactive) | 1.73 µM (inactive) | 1.5 µM (inactive) | 0.738 µM (active) | 1.14 µM (inactive) | 1.14 µM (inactive) | 1.64 µM (inactive) | 2.63 µM (inactive) | 0.75 µM (active) | 1.75 µM (inactive) | 4.06 µM (inactive) | 1.41 µM (inactive) | 0.0741 µM (active) | 1.71 µM (inactive) | 1.08 µM (active) | 0.619 µM (active) | 1.43 µM (inactive) | 1.58 µM (inactive) | 1.26 µM (inactive) |  |
| NC(CCc1nc(-c2ccc(Cl)cc2)cs1)C(=O)O (centres undefined) | > 100 µM (inactive) | > 100 µM (inactive) | > 100 µM (inactive) |  | > 100 µM (inactive) | > 100 µM (inactive) | > 100 µM (inactive) | > 100 µM (inactive) | > 100 µM (inactive) | > 100 µM (inactive) | > 100 µM (inactive) | > 100 µM (inactive) | > 100 µM (inactive) | > 100 µM (inactive) | > 100 µM (inactive) |  |  |  |  |  |
| O=[N+]([O-])c1ccc2c(Nc3ccccc3-c3ccccc3Nc3c4ccccc4nc4cc([N+](=O)[O-])ccc34)c3ccccc3nc2c1 | 2.54 µM (inactive) | 3.16 µM (inactive) | 4.32 µM (inactive) | 1.57 µM (inactive) | 2.61 µM (inactive) | 1.69 µM (inactive) | 6.46 µM (inactive) | 1.52 µM (inactive) | 6.07 µM (inactive) | 6.55 µM (inactive) | 8.05 µM (inactive) | 2.86 µM (inactive) | 4.01 µM (inactive) | 1.99 µM (inactive) | 1.93 µM (inactive) | 2.47 µM (inactive) | 1.34 µM (inactive) | 1.17 µM (inactive) | 1.44 µM (inactive) | 7.41 µM (inactive) |
| CC1(C)C(=O)C(C)(C)C1=NNC(N)=S | > 100 µM (inactive) | > 100 µM (inactive) | > 100 µM (inactive) | > 100 µM (inactive) | > 100 µM (inactive) | > 100 µM (inactive) | > 100 µM (inactive) | > 100 µM (inactive) | > 100 µM (inactive) | > 100 µM (inactive) | > 100 µM (inactive) | > 100 µM (inactive) | > 100 µM (inactive) | > 100 µM (inactive) | > 100 µM (inactive) |  |  |  |  |  |
| CCCN(CCCC(NC(C)=O)C(=O)NCc1ccccc1)C(=O)NC (centres undefined) | > 100 µM (inactive) | > 100 µM (inactive) | > 100 µM (inactive) | > 100 µM (inactive) | > 100 µM (inactive) | > 100 µM (inactive) | > 100 µM (inactive) | > 100 µM (inactive) | > 100 µM (inactive) | > 100 µM (inactive) | > 100 µM (inactive) | > 100 µM (inactive) | > 100 µM (inactive) | > 100 µM (inactive) | > 100 µM (inactive) |  |  |  |  |  |
| CCN(C(=N)C#N)c1ccccc1 | > 100 µM (inactive) | > 72.3 µM (inactive) | > 100 µM (inactive) | > 75.5 µM (inactive) | > 100 µM (inactive) | > 100 µM (inactive) | > 100 µM (inactive) | > 100 µM (inactive) | > 100 µM (inactive) | > 100 µM (inactive) | > 59.2 µM (inactive) | > 100 µM (inactive) | > 100 µM (inactive) | > 100 µM (inactive) | > 41.9 µM (inactive) |  |  |  |  |  |
| CC(=O)CCn1[nH]c(=O)c(Cl)c(Cl)c1=O | > 100 µM (inactive) | > 100 µM (inactive) | 15.3 µM (inactive) | > 100 µM (inactive) | > 100 µM (inactive) | > 100 µM (inactive) | 14.3 µM (inactive) | > 100 µM (inactive) | > 100 µM (inactive) | > 100 µM (inactive) | > 100 µM (inactive) | > 100 µM (inactive) | > 100 µM (inactive) | > 100 µM (inactive) | > 100 µM (inactive) |  |  |  |  |  |
| CC(Oc1ccc(Oc2cnc3ccc(Cl)cc3n2)cc1)C(=O)O (centres undefined) | > 100 µM (inactive) | 65.3 µM (inactive) | > 62.1 µM (inactive) | > 100 µM (inactive) | > 100 µM (inactive) | > 73.6 µM (inactive) | 64.1 µM (inactive) | > 81.8 µM (inactive) | 81.1 µM (inactive) | > 100 µM (inactive) | > 86.3 µM (inactive) | > 84.5 µM (inactive) | 11.7 µM (inactive) | 72.3 µM (inactive) | > 81.1 µM (inactive) | > 62.2 µM (inactive) | > 84.5 µM (inactive) | > 86.7 µM (inactive) | > 100 µM (inactive) | > 95.3 µM (inactive) |
